Series [1] relates to PLK1, LIN28B, and BMI1 transcripts. Nature of the series: qPCR of downstream targets of MycN (PLK1, LIN28B, BMI1) in SK-N-Be2 cells. Type of series: cell-based, human. The following applies: 10 μM, up to 24 h. The procedure: Reverse transcription quantitative polymerase chain reaction (RT-qPCR) was used to quantify transcript abundance of genes of interest. Total RNA was isolated from cells using the Qiaquick RNeasy isolation kit following manufacturer's instruction (QIAGEN). RNA quality and abundance was measured using a nanodrop spectrophotometer. A total of 2 μg RNA was used as a template for reverse transcription reactions. cDNA synthesis was performed using TaqMan reverse transcriptase following the manufacturer's instructions, using both oligod(T) and random hexamers as primers for RT reactions. RNAse treatment of cDNA removed any residual RNA in cDNA samples. cDNA samples were diluted 10-fold into nuclease-free dH2O, and used as the template for quantitative PCR reactions were performed in a Viia7 […] thermocycler using SYBR green and gene-specific primers (Table 1). qPCR reactions were performed using the Viia7 Real-Time PCR system (Applied Biosystems), and relative transcript abundance evaluated using the deltaCT method, using the GAPDH housekeeping gene as normalization control.
For orientation: Quantitative PCR measures a nucleic acid by following its amplification.

Series [2] concerns SK-N-Be2 cells. Type of series: in vitro ADME, human. As to conditions: human, 20 μM. The procedure: In brief, SK-N-Be2 cells were seeded at 400 k cells/well in 6 w plates and incubated overnight. The following day, compounds were added to wells at indicated concentrations, with DMSO-only control added to non-treated wells. Following treatment for the indicated time periods, cells were trypsinized, rinsed twice with cold PBS to remove media, pelleted by centrifugation, and frozen at −20° C. To extract compounds, frozen pellets were resuspended in 150 μL of acetonitrile, sonicated for 2′, and centrifuged at 1400×g for 75′ at 4° C. Supernatant was collected and analyzed by LC-MS using a system comprised of a Thermo Scientific Dionex Ultimate 3000 and a Bruker amaZon SL equipped with an electrospray ionization source controlled by a Bruker Hystar 3.2. Compounds were separated by injecting 20 μL of supernatant onto an Agilent Eclipse Plus C18 column (2.1×50 mm, […]) maintained at 20° C., with the flow rate set at 400 μL/min. Initial flow conditions were 60% solvent A (MilliQ H2O, 0.1% acetic acid), and 40% solvent B (HPLC-grade MeOH, 0.1% acetic acid). Solvent B was raised to 60% over 0.25 min and to 70% by 6.75 min. Solvent B was raised to 95% by 7 min and lowered back to 40% by 8 minutes; total run time was 9 min (Bos et al. 2019).

Series [3] deals with PARP and caspase3 cleavage. As to the kind of experiment: Western blot of apoptosis hallmarks (cleaved PARP, cleaved caspase 3). Type of series: cell-based, human. As to conditions: SK-N-Be2 cells, 48 hrs. The source says:
(§1) Membranes were blocked using Odyssey Blocking Buffer (LI-COR) for 1 hr at room temperature. […] Primary antibodies used in these studies include: MycN (CST; 1:500 dilution), Actin (SCBT; 1:2000 dil.), cMYC (CST; 1:500 dil.), pAKT (S473; CST; 1:500 dil.), AKT (CST; 1:2000), pP70 (T389; CST; 1:1000) P70 (CST; 1:1000).
In general terms: In western blotting, separated proteins are transferred to a membrane and probed.

Series [4] relates to mutant isoform of CK2a1. As to the kind of experiment: Cell viability after expression of mutant CK2a1 isoform. The following applies: versus GFP-expressing plasmid.
Series [5] relates to MYCN MR signature. As to the kind of experiment: RNASeq with VIPER analysis of the MYCN MR signature. Type of series: cell-based, human. As to conditions: SK-N-Be2 cells. Here is the method: To uncover changes in gene expression that underpin responses to pomiferin and isopomiferin, RNASeq analysis of SK-N-Be2 cells was performed following treatment with the two active prenylated isoflavonoids as well as a null analog that served as a negative control. SK-N-Be2 cells were treated with either 3 μM or 10 μM of isopomiferin or pomiferin and sampled after 3 h and 6 h. […] By comparing the active to the null analogs, downstream analyses can focus on changes in gene expression associated with the MYCN signature.
Intriguingly, only six MRs were suppressed by pomiferin and isopomiferin, while being unaffected by the null analog dimethyl pomiferin (FIG. 20B).

For series [6], the target named is mTOR (Homo sapiens, UniProt P42345). Nature of the series: Cell-free biochemical mTOR kinase assay. The procedure:
Cell-free biochemical kinase assays were performed at Reaction Biology Corporation (Malvern, Pa.). In brief, kinase substrates were diluted into reaction buffer containing 20 mM Hepes (pH 7.5), 10 mM MgCl2, 1 mM EGTA, 0.02% Brij35, 0.02 mg/ml BSA, 0.1 mM Na3VO4, 2 mM DTT, 1% DMSO. Purified protein (CK2a1, CK2a2, or mTOR) was added to the substrate solution and gently mixed. Test compounds were diluted from 10 mM DMSO stock solutions into the reaction buffer using an Echo550 acoustic dispenser, followed by incubation at RT for 20 min. 33P-ATP (10 μCi/μL) was added to reaction mixture, following incubation for 2 h at RT. Reactions were then spotted onto P81 ion exchange paper and kinase activity was detected by filter binding method.

Series [7] relates to MYC protein. Nature of the series: Western blot of MYC protein in SCLC lines NCI-H69 and NCI-H209. It is filed as cell-based. As to conditions: NCI-H69 and NCI-H209, 24 h.
Text: as §1

Series [8] has as its system pS6K. Nature of the series: S6K phosphorylation western blot in SK-N-Be2 cells. It is filed as cell-based, human. The following applies: 10 μM and 20 μM, 24 hours.
Text: as §1
(§2) We then tested whether mTORC2 complex was disrupted by isopomiferin treatment. […] to enable translation. We tested whether phosphorylation of S6K was inhibited by isopomiferin by treating SK-N-Be2 cells to 10 μM and 20 μM isopomiferin for 24 hours and blotting for pS6K, using total S6K protein as a loading control. […] We then tested whether this was consistent across cell lines by performing a similar experiment in an NSCLC cell line, A549.

For series [9], the system named is pS6K. As to the kind of experiment: S6K phosphorylation western blot in A549 cells. Type of series: cell-based. As to conditions: 24 hrs.
Text: as §1, §2

Each structure is given as a SMILES string.

For the molecule `CC(C)=CCc1c2c(c3occ(-c4ccc(O)c(O)c4)c(=O)c3c1O)C=CC(C)(C)O2` [pomiferin], the “transcript accumulation of PLK1, LIN28B, and BMI1” value in series [1] is given as “inhibited the transcript accumulation of three downstream targets of MycN”. In addition, the “amount of compound detected in cell sample” value in series [2] is roughly 300 ng. Moreover, in series [3], the “induction of apoptosis (PARP and caspase3 cleavage)” value was “more potent inducer of apoptosis than CX-4945”. The “resistance conferred by mutant CK2 isoform” value in [4] is given as “modest resistance”. Further, in [5], the “effect on the MYCN MR signature (VIPER of RNASeq)” value is given as “had the strongest effect on the MYCN MR signature”.

`CC1(C)C=Cc2c(c3c(c4c(=O)c(-c5ccc(O)c(O)c5)coc24)OC(C)(C)CC3)O1` [isopomiferin]: the mTOR kinase activity entry in series [6] is “did not directly inhibit mTOR kinase activity”. In series [7], the “MYC protein abundance in SCLC lines” value is “suppressed MYC protein in both SCLC lines”. The “phosphorylation of S6K (P70^S6K)” value was “completely inhibited phosphorylation of S6K protein” in series [8] and “inhibited phosphorylation of P70^S6K” in series [8] (listed as Isopomiferin). The pS6K result in series [9] is listed as “suppressed pS6K in A549 cells”.

The values are drawn from patent publication US20220119399A1, “COMPOUNDS AND COMPOSITIONS THAT CAUSE MYCN AND/OR CMYC DEGRADATION AND METHODS OF USE THEREOF” (THE TRUSTEES OF COLUMBIA UNIVERSITY IN THE CITY OF NEW YORK, priority 2018, published 2022).
